Assay results from patent publication US8680110B2, “P2X4 receptor antagonist” (Nippon Chemiphar Co., Ltd., priority 2010, dated 2014).
Where a name gives a salt, the structure may show the parent alone.

Target: T1, human P2X4 receptors (Homo sapiens, UniProt Q99571)
T1 sequence (Q99571 1-388): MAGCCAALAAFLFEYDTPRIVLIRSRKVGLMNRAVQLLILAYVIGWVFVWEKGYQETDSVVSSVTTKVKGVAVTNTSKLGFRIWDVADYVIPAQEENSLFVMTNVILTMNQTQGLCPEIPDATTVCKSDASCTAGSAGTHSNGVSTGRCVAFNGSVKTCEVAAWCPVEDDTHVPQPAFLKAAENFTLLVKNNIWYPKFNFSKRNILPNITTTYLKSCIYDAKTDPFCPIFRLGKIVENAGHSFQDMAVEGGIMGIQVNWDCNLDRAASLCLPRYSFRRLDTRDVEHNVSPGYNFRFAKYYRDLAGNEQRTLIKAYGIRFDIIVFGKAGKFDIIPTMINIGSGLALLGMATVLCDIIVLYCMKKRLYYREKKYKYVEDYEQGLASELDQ
Experiment: P2X4 receptor antagonism, intracellular calcium assay (Fura-2 AM) in 1321N1 cells
Type: cell-based
Conditions: 1321N1 cells stably expressing human P2X4 receptors; compound added 15 minutes before ATP; ATP-induced calcium influx; read-out: Inhibition activities (IC50 μM)
Experimental: 1321N1 cells stably expressing human P2X4 receptors were plated in 96-well assay plate and cultured 24 hours at 37° C. in an atmosphere of 5% CO2 for intracellular calcium assay. Fura-2 AM calcium fluorescent indicator was used for the intracellular calcium assay. Fura-2 AM was dissolved in an assay buffer, and the solution was loaded onto cells. The obtained plate was used for fluorescent assay. Test compounds were treated to cells 15 minutes before the addition of ATP, and the response to intracellular calcium influx induced by addition of ATP was monitored by a micro plate reader. The fluorescence ratio of excitations wavelengths of 340 nm and 380 nm was used as the index of intracellular calcium change. The inhibition activities of the test compounds were calculated by comparison with the absence of the test compound (control).
P2X4 receptor antagonism of the compound of the present invention was measured as described below. […]
Test compounds were treated to cells 15 minutes before the addition of ATP, and the response to intracellular calcium influx induced by addition of ATP was monitored by a micro plate reader. The fluorescence ratio of excitations wavelengths of 340 nm and 380 nm was used as the index of intracellular calcium change. The inhibition activities of the test compounds were calculated by comparison with the absence of the test compound (control).

SMILES: O=c1nc(-c2cccc(-c3nnn[nH]3)c2)c2ccc3ccccc3c2[nH]1 [Example 2, 4-[3-(1H-Tetrazol-5-yl)phenyl]-1H-benzo[h]quinazolin-2-one sodium salt]
- IC50: 0.16 µM
